We go through two compounds from patent US20130143965A1, “MICROBI[…] AND STABLE SOLUTIONS OF GAMMA-HYDRO[…] FOR THE TREATMENT OF NARCOLEPSY” (Jazz Pharmaceuticals, Inc., priority 1998, published 2013).

“Also recorded” adds a separate entry of the source. Like-named read-outs stand apart in the source and are kept apart here.

For series [1] the following is noted: alcohol dependent patients, cited from earlier work.
The nature of series [2]: Solubility of sodium oxybate (GHB) in aqueous solution versus pH. The following applies: for State of 1000 mg/cc solution: pH unadjusted.
A short description of series [3]: Safety assessment in the pharmacokinetic study (adverse experiences, physical examination). In kind it is in vivo, human. How it is done: Follow-up occurred within 48 h after the last blood sample had been collected. An abbreviated physical examination which included vital signs measurement was performed. Adverse experiences and concomitant medication use, if any, were assessed. Any ongoing adverse experiences and clinically important findings in a patient were followed to the investigator's and/or sponsor's satisfaction before the patient was discharged from the study.
An adverse experience are any undesirable event experienced by a patient or volunteer whether or not considered drug-related by the investigator. An undesirable event can be, but is not limited to, subjective symptoms experienced by a patient or, objective findings such as significant clinical laboratory abnormalities. Adverse experience is considered synonymous with the term “adverse event”.
The investigators report in detail all adverse experiences and symptoms that occurred during or following the course of trial drug administration for up to 2 days. Included in the description was the nature of the sign or symptom; the date of onset; date or resolution (duration); the severity; the relationship to trial treatment or other therapy; the action taken, if any; and the outcome.
Safety Analyses: Results of physical examinations, vital signs, clinical laboratory data were summarized in tabular form and presented by patient number. […]

Series [4] in a line: Pharmacokinetics of GHB after two consecutive 3 g oral doses in narcoleptic patients. The format is in vivo, human. As to conditions: for Cmax: po, read-out: maximum GHB concentration (Cmax), mean ±SD. How it is done:
The objective of this study was to assess the pharmacokinetics of GHB after oral administration of two consecutive single doses of GHB (3 g/dose; patients generally ingested the first dose of this medication prior to bedtime and the second dose from 2.5 to 4.0 h later) to narcoleptic patients who are maintained on a chronic regimen of GHB.
This pharmacokinetic study was conducted as an open-label, single-center investigation in 6 narcoleptic patients. The study design is summarized as follows:
Before oral administration of the first GHB dose, an indwelling catheter was placed in an arm vein and a baseline blood sample was collected. Each patient then ingested a 3 g dose of GHB before bedtime. Another 3 g GHB dose was administered 4 h after the first dose. Twenty-one sequential blood samples were collected over 12 h (starting at 10 min after the first dose and ending at 8 h after the second dose). Upon completion of the treatment phase, a follow-up physical examination which included the measurement of vital signs was performed on each patient within 48 h after the last blood sample. A detailed description of the trial methodology is presented in Section IV.
All patients were hospitalized from approximately four hours prior to first GHB dosing (around 6 p.m.) until the end of the treatment period (around 10 a.m. the next morning). Patients ate their dinner at the clinical research unit soon after arrival and fasted until breakfast next morning. At least three hours elapsed between the completion of dinner and the administration of the first GHB dose. An indwelling catheter was placed in an arm vein of each patient for blood sampling at approximately 30 min and 1 h before the first GHB dose and a baseline blood sample (5 mL) was collected.
The first GHB dose (3 g) was administered at around 10 p.m. Dosing of individual patients were staggered. The second GHB dose was administered at 4 h after the first GHB dose (i.e. immediately after the 4 h blood sample). The exact dosing times in each patient were recorded on appropriate CRF pages. Blood samples (5 mL each) were collected through the indwelling catheter into heparinized tubes at 0.2, 0.4, 0.6, 0.8, 1, 1.5, 2, 3, 4, 4.2, 4.4, 4.6, […], 5, 5.5, […], 7, 8, 10, and 12 h after the first GHB dose. Blood samples were processed according to the procedures described herein. Patients were monitored for adverse experiences throughout the study according to the specific procedures.
Dose Administration: The investigator or designee prepared the oral solution for dosing within 30 min prior to the first oral administration to individual patients. The contents of one twin-pouch was emptied into a dosing cup to which two ounces of water were added. After replacing the lid of the dosing cup, it was gently shaken to dissolve the GHB and excipient in water. The GHB solution was ingested in its entirety. Likewise, the second GHB dosing solution was prepared in the same manner and was ingesting in its entirety at 4 h after the first GHB dose.
Plasma samples were analyzed for GHB by the Department of Bioanalytical Chemistry (Covance (previously known as Hazelton Corning), Madison, Wis.) A gas chromatographic method with mass selective detection (GC-MSD) was used in the analysis.
Pharmacokinetic Analysis: Pharmacokinetic parameters were determined for individual sets of plasma GHB concentration vs. time data using the non-compartmental routine in WinNonlin Version 1.1. The peak GHB concentrations (Cmax) and the times of their respectively occurrences (tmax) were observed values. Terminal half-life (T1/2) was obtained by log-linear regression analysis of the terminal phase of concentration vs. time curves. The area under the curve (AUCinf) and the area under the first moment curve (AUMCinf) were calculated by the linear trapezoidal rule up to the last determined concentration and included extrapolated areas to time infinity. Apparent oral clearance (CL/F) was calculated as Dose/AUCinf. […]

Turning to `O=C(O)CCCO` [GHB, gamma-hydroxybutyrate], the apparent oral clearance in series [1] (25 mg/kg dose (Ferrara, 1992)) is 8.1 ± 4.8 mL/min/kg; in series [1] (dose of 50 mg/kg (Ferrara, 1992)), 5.3 ± 2.2 mL/min/kg. Besides, the solubility in series [2] (aqueous medium, 25 °C, thermodynamic from solid) is at most 750 mg/mL; in series [2] (aqueous medium, 100 °C, thermodynamic from solid), at least 1000 mg/mL. Further, the “adverse experiences / tolerability” value in series [3] (narcoleptic patients, two 3 g oral doses) is “No adverse experiences were reported; also recorded: well tolerated”. For the same compound, the “follow-up physical examination results” value in series [3] (screen versus follow-up, per individual patient) is “did not identify any changes attributable to GHB”. In addition, in series [4] (Subject 101 after the second 3 g GHB dose), the “highest plasma GHB concentration observed in the study” value turned out to be 125.0 µg/mL. Besides, the “mean observed time to maximum concentration” value in series [4] (after the first GHB dose) amounted to 40 ± 6 min; in series [4] (after the second GHB dose), 36 ± 7 min. In series [4] (after the second GHB dose (10 h after the first GHB dose)), the “time by which plasma GHB concentrations were no longer detectable” value is recorded as at most 6 h. Moreover, the time to peak (Tmax) in series [4] (human, plasma, oral, 3 g, after dosing (discussion)) was around 40 min. For the same compound, the concentration at 4 h in series [4] (human, plasma, oral, 3 g, at h 4 after the first GHB dose, in three of six patients, read-out: residual GHB levels) was around 15000 ng/mL. Further, the half-life in series [4] (human, plasma, oral, narcoleptic patients, read-out: elimination half-life of GHB) was below 60 min; in series [4] (human, plasma, oral, terminal phase of the second GHB dose, read-out: mean GHB T1/2 (elimination half-life)), 53 ± 19 min. The Cmax in series [4] (human, plasma, 3 g, first 3 g oral GHB dose, 6 narcoleptic patients) turned out to be 62.8 ± 27.4 µg/mL; in series [4] (human, plasma, 3 g, second 3 g oral GHB dose (4 h after the first)) it was 91.2 ± 25.6 µg/mL. Also, in series [4] (human, plasma, two 3 g oral doses 4 h apart, read-out: mean AUCinf (converted)), the AUC(0-inf) is 296 µg·h/mL. Besides, the CL/F in series [4] (human, plasma, two 3 g oral doses 4 h apart, read-out: mean CL/F (apparent oral clearance)) turned out to be 4.2 ± 1 mL/min/kg. Moreover, in series [4] (human, plasma, two 3 g oral doses 4 h apart, read-out: mean MRTinf (converted)), the MRT inf was 4.15 h. Besides, the Vd/F in series [4] (human, plasma, two 3 g oral doses 4 h apart, read-out: mean Vz/F) was found to be 0.307 ± 0.096 L/kg. For the same compound, the “mean GHB T1/2 (elimination half-life)” value in series [4] (terminal phase of the second GHB dose) is given as around 35 min.
As to `O=C(O)CCCO` [Sodium Oxybate, sodium oxybate], the solubility result in series [2] (500 mg/cc with Malic Acid at pH 5.0) is “not soluble”; in series [2] (aqueous medium, 25 °C, pH 4, aqueous buffer, thermodynamic from solid) it was 450 mg/mL; in series [2] (aqueous medium, 25 °C, pH 5, aqueous buffer, thermodynamic from solid) it was 500 mg/mL; in series [2] (aqueous medium, 25 °C, pH 6, aqueous buffer, thermodynamic from solid), 600 mg/mL; in series [2] (aqueous medium, 25 °C, pH 6.8, aqueous buffer, thermodynamic from solid) it was 750 mg/mL; in series [2] (aqueous medium, 25 °C, pH 10.3, thermodynamic from solid) it was at least 750 mg/mL. Besides, in series [2] (aqueous medium, 65 °C, thermodynamic from solid), the solubility was 1000 mg/mL. Besides, the “Maxium Solubility” value in series [2] (pH 4 (HCl), 25°) is on record as 450 mg/cc; in series [2] (pH 5 (HCl), 25°), 500 mg/cc; in series [2] (pH 6 (HCl), 25°) it was 600 mg/cc; in series [2] (pH 6.8 (HCl), 25°) it was 750 mg/cc; in series [2] (pH 10.3, 25°), 750 mg/cc +; in series [2] (pH (unadjusted), 65° Soluble, 25° Gel) it was 1000 mg/cc. Further, the entries for the “State of 1000 mg/cc solution” value in series [2] (25°) and in series [2] (65°) were “Gel” and “Soluble,”, respectively.

As a reminder, the solubility is how much of the substance goes into solution per volume. Low values mean little dissolved substance, high ones much dissolved substance. What is called Tmax is the time at which the peak concentration occurs.
